Experimental data published in patent US20060079453A1, “Hla binding peptides and their uses” (priority 2002, published 2006).
Like-named read-outs stand apart in the source and are kept apart here. No end group written: not given here.

Columns and labels:
Assay in all cases: biochemical
Format in all cases: binding
HLA-DR DRB1*0301 (DR3) = HLA-DR DRB1*0301 (DR3) (Homo sapiens, UniProt P01903+P01911, A100K/A102G/A103R/A169T/F55Y/I96L/K41T/L162R/M171V/P40S/Q125H/Q178H/Q39Y/R42S/S66N/T106N/T262R/W38E/Y61H)
Chain of HLA-DR DRB1*0301 (DR3) (P01903 26-254 limits assumed, other chains not shown): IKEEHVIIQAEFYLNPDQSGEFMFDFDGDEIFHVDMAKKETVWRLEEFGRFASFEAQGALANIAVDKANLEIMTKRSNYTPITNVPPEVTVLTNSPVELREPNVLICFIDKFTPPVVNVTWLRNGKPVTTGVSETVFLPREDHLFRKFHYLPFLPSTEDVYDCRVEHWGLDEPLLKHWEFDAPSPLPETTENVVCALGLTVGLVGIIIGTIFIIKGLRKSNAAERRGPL

HLA-DR DRB1*1302 (DR13) = HLA-DR DRB1*1302 (DR13) (Homo sapiens, UniProt P01903+P01911, A100E/A169T/K41T/L162R/M171V/P40S/Q125H/Q178H/Q39Y/Q99D/R42S/S66N/T262R/V115G/W38E/Y61H)
Chain of HLA-DR DRB1*1302 (DR13) (P01903 26-254 limits assumed, other chains not shown): as above

HLA-DR DRB1*1101 (DR11) = HLA-DR DRB1*1101 (DR11) (Homo sapiens, UniProt P01903+P01911, A100R/A169T/A87E/I96F/K41T/L162R/M171V/P40S/Q125H/Q178H/Q39Y/Q99D/R42S/S66Y/T262R/V115G/W38E)
Chain of HLA-DR DRB1*1101 (DR11) (P01903 26-254 limits assumed, other chains not shown): as above

HLA-DR DRB1*1501 (DR15) = HLA-DR DRB1*1501 (DR15) (Homo sapiens, UniProt P01903+P01911)
HLA-DR DRB4*0101 (DR53) = HLA-DR DRB4*0101 (DR53) (Homo sapiens, UniProt P01903+P13762, G164S)
HLA-DR DRB1*0401 (DR4) = HLA-DR DRB1*0401 (DR4) (Homo sapiens, UniProt P01903+P01911, A100K/A169T/F76Y/I96L/K127E/L162R/M171V/N62H/P40V/Q125Y/R42H/S133A/S149N/S66Y/V115G/V209L/W38E)
HLA-DR DRB1*0701 (DR7) = HLA-DR DRB1*0701 (DR7) (Homo sapiens, UniProt P01903+P01911, A100R/A102G/A103Q/D57E/D86V/E43K/F76Y/K127E/L162R/M171V/P40G/Q125H/Q99D/R33Q/R42Y/R54Q/S133A/S66F/T210M/V115G/Y107V/Y59L/Y89S)
HLA-DR DRB5*0101 (DR51) = HLA-DR DRB5*0101 (DR51) (Homo sapiens, UniProt P01903+Q30154)
HLA-DR DRB1*0101 (DR1) = HLA-DR DRB1*0101 (DR1) (Homo sapiens, UniProt P01903+P01911, A100R/D57E/F55L/F60I/F76Y/I96L/L162R/M171V/P40L/Q125E/R42F/V115G/Y59C); conditions: DRB1 *0101

Work on VGGVYLLPRRGPRLGV yielded an IC50 (HLA-DR DRB1*0301 (DR3); read-out: DRB1 *0301) of 237 µM.
In the case of Ac-NPTKHKWEAAHVAEQLAA, the IC50 (HLA-DR DRB1*1302 (DR13); DRBI *1302) is reported as > 10 µM, the IC50 (HLA-DR DRB1*1101 (DR11); DRB1 *1101) is reported as > 33.3 µM and the IC50 (HLA-DR DRB1*1501 (DR15); DRBI *1501) is reported as 200 µM.
KKPLNEILIRCHCQ showed an IC50 (HLA-DR DRB1*1302 (DR13); read-out: DRBI *1302) of 0.965 µM, an IC50 (HLA-DR DRB4*0101 (DR53); read-out: DRB4 *0101) of 0.14 µM and an IC50 (HLA-DR DRB1*1101 (DR11); read-out: DRB1 *1101) of 1.3 µM.
In the case of TEGRCLHYTVDKSKPK, the IC50 (HLA-DR DRB1*0401 (DR4); DRB1 *0401) is reported as 0.2 µM, the IC50 (HLA-DR DRB1*0701 (DR7); DRB1 *0701) is reported as > 250 µM and the IC50 (HLA-DR DRB1*1101 (DR11); DRB1 *1101) is reported as > 1.25 µM.
In the case of VYQLDIQSTKEDLRV, the IC50 (HLA-DR DRB1*1302 (DR13); read-out: DRBI *1302) is reported as 0.708 µM, the IC50 (HLA-DR DRB4*0101 (DR53); read-out: DRB4 *0101) is reported as 0.226 µM and the IC50 (HLA-DR DRB1*1101 (DR11); read-out: DRB1 *1101) is reported as 7.35 µM. It also gave an IC50 (HLA-DR DRB5*0101 (DR51); read-out: DRB5 *0101) of 8.69 µM.
For YEEYVRFDSDVGE, the IC50 (HLA-DR DRB1*0101 (DR1)) was ≥ 50 µM, the IC50 (HLA-DR DRB1*0401 (DR4); DRB1 *0401) was 0.4 µM and the IC50 (HLA-DR DRB1*1101 (DR11); DRB1 *1101) was ≥ 200 µM. The IC50 (HLA-DR DRB5*0101 (DR51); DRB5 *0101) was ≥ 200 µM.
For Ac-ASQKRPSQRHGSKYLATAST, the IC50 (HLA-DR DRB1*0301 (DR3)) was > 900 µM.
For DIRILQELLMGSFGI, the IC50 (HLA-DR DRB1*0101 (DR1)) was 0.088 µM, the IC50 (HLA-DR DRB1*1302 (DR13); DRBI *1302) was 5.8 µM and the IC50 (HLA-DR DRB4*0101 (DR53); DRB4 *0101) was 0.016 µM. The IC50 (HLA-DR DRB1*0701 (DR7); DRB1 *0701) was 1.59 µM, the IC50 (HLA-DR DRB1*1101 (DR11); DRB1 *1101) was 19 µM and the IC50 (HLA-DR DRB5*0101 (DR51); DRB5 *0101) was > 55.1 µM. For the same substance, the IC50 (HLA-DR DRB1*1501 (DR15); DRBI *1501) was 1.62 µM and the IC50 (HLA-DR DRB1*0301 (DR3)) was 3.25 µM.
YAGIRRDGLLLRLVD showed an IC50 (HLA-DR DRB1*0301 (DR3)) of 0.0096 µM.
EEYVRFDSDVGE was tested, and the IC50 (HLA-DR DRB1*0101 (DR1)) was ≥ 50 µM, the IC50 (HLA-DR DRB1*0401 (DR4); DRB1 *0401) was 0.216 µM and the IC50 (HLA-DR DRB1*1101 (DR11); DRB1 *1101) was ≥ 200 µM. The IC50 (HLA-DR DRB5*0101 (DR51); DRB5 *0101) was ≥ 200 µM.
With SEVYDFAFADLTVVY the IC50 (HLA-DR DRB1*0101 (DR1)) was 0.031 µM, the IC50 (HLA-DR DRB1*1302 (DR13); DRBI *1302) was > 13.1 µM and the IC50 (HLA-DR DRB1*0401 (DR4); DRB1 *0401) was 0.26 µM. For the same substance, the IC50 (HLA-DR DRB1*0701 (DR7); DRB1 *0701) was 1.85 µM, the IC50 (HLA-DR DRB1*1101 (DR11); DRB1 *1101) was > 18 µM and the IC50 (HLA-DR DRB5*0101 (DR51); DRB5 *0101) was 11.8 µM. It also gave an IC50 (HLA-DR DRB1*1501 (DR15); DRBI *1501) of 0.955 µM and an IC50 (HLA-DR DRB1*0301 (DR3)) of 3 µM.
IQQLLMGTVNIVCPT was tested, and the IC50 (HLA-DR DRB1*1302 (DR13); read-out: DRBI *1302) was 0.009 µM, the IC50 (HLA-DR DRB1*1101 (DR11); read-out: DRB1 *1101) was 11.1 µM and the IC50 (HLA-DR DRB5*0101 (DR51); read-out: DRB5 *0101) was > 55.1 µM. For the same substance, the IC50 (HLA-DR DRB1*1501 (DR15); read-out: DRBI *1501) was 2.01 µM.
With TGYKVLVLNPSV the IC50 (HLA-DR DRB1*1302 (DR13); read-out: DRBI *1302) was 0.021 µM, the IC50 (HLA-DR DRB1*1101 (DR11); read-out: DRB1 *1101) was 0.026 µM and the IC50 (HLA-DR DRB5*0101 (DR51); read-out: DRB5 *0101) was > 11.4 µM.
LAHYDVLLSYPNKTA was tested, and the IC50 (HLA-DR DRB4*0101 (DR53); read-out: DRB4 *0101) was 0.589 µM, the IC50 (HLA-DR DRB1*1101 (DR11); read-out: DRB1 *1101) was 0.38 µM and the IC50 (HLA-DR DRB1*1501 (DR15); read-out: DRBI *1501) was 0.082 µM.
For CIVYRDCIAYAACHK, the IC50 (HLA-DR DRB1*0401 (DR4); read-out: DRB1 *0401) was 0.928 µM, the IC50 (HLA-DR DRB1*0701 (DR7); read-out: DRB1 *0701) was > 14.6 µM and the IC50 (HLA-DR DRB1*1101 (DR11); read-out: DRB1 *1101) was 35.6 µM. For the same substance, the IC50 (HLA-DR DRB5*0101 (DR51); read-out: DRB5 *0101) was 1.91 µM.
